Measurements: ChEMBL document CHEMBL5038635, “Discovery of Salidroside-Derivated Glycoside Analogues as Novel Angiogenesis Agents to Treat Diabetic Hind Limb Ischemia” (J Med Chem, 2022)
≈ marks a conversion by molar mass, not a printed value. Calls of active or inactive are those of the source. The calls are words filed in the database; no cut-off is given here.

Key:
[1] = Protein binding in human plasma by balanced dialysis method; type: ADME, cell-free; details: read-out: PPB (converted)
[2] = Efflux ratio of Apparent permeability across basolateral to apical side over apical to basolateral side in human Caco-2 cells
[3] = system: C2C12; assay: Reversal of hyperglycemia-induced VEGF-A protein level reduction in mouse C2C12 cells measured at 30 uM by Western blot analysis; type: functional, cell-based
[4] = Water solubility of the compound by HPLC analysis
[5] = Dissociation constant, pKa of compound by UV-visible spectrometric method; type: physicochemical
[6] = Octanol/Water partition coefficient, log P of the compound by HPLC-UV analysis
[7] = Permeability coefficient across apical to basolateral side in human Caco-2 cells by HPLC-UV analysis
[8] = Permeability coefficient across basolateral to apical side in human Caco-2 cells by HPLC-UV analysis
[9] = system: C2C12; assay: Reversal of hyperglycemia-induced PDGF-BB protein level reduction in mouse C2C12 cells measured at 30 uM by Western blot analysis; type: functional, cell-based
[10] = system: C2C12; assay: Reversal of hyperglycemia-induced VEGF-A protein level reduction in mouse C2C12 cells measured at 30 uM by ELISA; type: functional, cell-based
[11] = system: C2C12; assay: Reversal of hyperglycemia-induced PDGF-BB protein level reduction in mouse C2C12 cells measured at 30 uM by ELISA; type: functional, cell-based
[12] = system: C2C12; assay: Induction of F-actin polymerization in mouse C2C12 cells at 30 uM pretreated with compound for 12 hr followed by hypoxic condition for 24 hrs by phalloidin staining based confocal microscopy; type: functional, cell-based; details: time 36.0 hrs
[13] = system: C2C12; assay: Induction of cell migration in mouse C2C12 cells at 30 uM under hyperglycemic condition incubated for 24 hrs by crystal violet dye based transwell chamber assay; type: functional
[14] = system: MOVAS-1; assay: Angiogenesis activity in mouse MOVAS-1 assessed as increase of cell migration using conditioned medium of mouse C2C12 cells with silenced HIF-1alpha treated at 30 uM under hyperglycemic condition for 12 hrs followed by hypoxia for 24 hrs by crystal violet dye based transwell assay; type: functional; details: time 36.0 hrs
[15] = system: HUVEC; assay: Angiogenesis activity in human HUVEC cells assessed as increase of cell migration using conditioned medium of mouse C2C12 cells with silenced HIF-1alpha treated at 30 uM under hyperglycemic condition for 12 hrs followed by hypoxia for 24 hrs by crystal violet dye based transwell assay; type: functional; details: time 36.0 hrs
[16] = system: MOVAS-1; assay: Induction proliferation of mouse MOVAS-1 cells assessed as increase in number of EdU-positive cells using conditioned medium of mouse C2C12 cells treated at 30 uM under hyperglycemic condition for 12 hrs followed by hypoxia for 24 hrs by EdU-incorporation assay; type: functional; details: time 36.0 hrs
[17] = system: HUVEC; assay: Induction proliferation of human HUVEC cells assessed as increase in number of EdU-positive cells using conditioned medium of mouse C2C12 cells treated at 30 uM under hyperglycemic condition for 12 hrs followed by hypoxia for 24 hrs by EdU-incorporation assay; type: functional; details: time 36.0 hrs
[18] = system: HUVEC; assay: Angiogenic activity in human HUVEC cells assessed as suppression of F-actin polymerization at 30 uM using conditioned medium of mouse C2C12 cells treated at 30 uM under hyperglycemic condition for 12 hrs followed by hypoxia for 12 hrs by phalloidin staining based confocal microscopy; type: functional, cell-based; details: time 24.0 hrs
[19] = system: MOVAS-1; assay: Angiogenic activity in mouse MOVAS-1 cells assessed as suppression of F-actin polymerization at 30 uM using conditioned medium of mouse C2C12 cells treated at 30 uM under hyperglycemic condition for 12 hrs followed by hypoxia for 12 hrs by phalloidin staining based confocal microscopy; type: functional, cell-based; details: time 24.0 hrs
[20] = system: HUVEC; assay: Angiogenesis activity in human HUVEC cells assessed as suppression of cell migration using conditioned medium of mouse C2C12 cells treated at 30 uM under hyperglycemic condition for 12 hrs followed by hypoxia for 24 hrs by crystal violet dye based transwell assay; type: functional; details: time 36.0 hrs
[21] = system: MOVAS-1; assay: Angiogenesis activity in mouse MOVAS-1 cells assessed as suppression of cell migration using conditioned medium of mouse C2C12 cells treated at 30 uM under hyperglycemic condition for 12 hrs followed by hypoxia for 24 hrs by crystal violet dye based transwell assay; type: functional; details: time 36.0 hrs
[22] = system: HUVEC; assay: Induction proliferation of human HUVEC cells assessed as increase in number of EdU-positive cells using conditioned medium of mouse C2C12 cells with silenced HIF-1alpha treated at 30 uM under hyperglycemic condition for 12 hrs followed by hypoxia for 24 hrs by EdU-incorporation assay; type: functional, cell-based; details: time 36.0 hrs
[23] = system: MOVAS-1; assay: Induction proliferation of mouse MOVAS-1 assessed as increase in number of EdU-positive cells using conditioned medium of mouse C2C12 cells with silenced HIF-1alpha treated at 30 uM under hyperglycemic condition for 12 hrs followed by hypoxia for 24 hrs by EdU-incorporation assay; type: functional, cell-based; details: time 36.0 hrs
[24] = Stability in rat plasma assessed as compound remaining at 6.25 to 25 mg/L after 12 hrs by HPLC analysis; type: ADME, cell-free; details: at 6.25 to 25 µg/mL, dose 6.25-25 mg/L, read-out: Stability
[25] = Microsomal stability in rat liver microsomes assessed as compound remaining after 30 min by HPLC analysis; type: ADME, Microsome; details: read-out: Stability
[26] = Metabolic stability in rat leg muscle homogenates assessed as compound remaining after 30 min by HPLC analysis; type: ADME, tissue-based, muscle of leg; details: read-out: Stability
[27] = system: Mus musculus; assay: Antidiabetic activity in diabetic HLI C57BL/6 mouse model assessed as effect on blood glucose level at 15 mg/kg administered intramuscular; type: functional, organism-based
[28] = system: Mus musculus; assay: Antidiabetic activity in diabetic HLI C57BL/6 mouse model assessed as increase in blood perfusion recovery at 100 mg/kg administered intramuscularly; type: functional, organism-based
[29] = system: Mus musculus; assay: Antidiabetic activity in diabetic HLI C57BL/6 mouse model assessed as morphological changes at 100 mg/kg administered intramuscularly; type: functional, organism-based
[30] = system: Mus musculus; assay: Angiogenesis activity in diabetic HLI C57BL/6 mouse model assessed as PDGF-BB protein expression at 100 mg/kg, im administered for 21 days followed by surgery by Western blot analysis; type: functional, organism-based; details: time 21.0 day
[31] = system: Mus musculus; assay: Angiogenesis activity in diabetic HLI C57BL/6 mouse model assessed as VEGF-A protein expression at 100 mg/kg, im administered for 21 days followed by surgery by Western blot analysis; type: functional, organism-based; details: time 21.0 day
[32] = system: Mus musculus; assay: Angiogenesis activity in diabetic HLI C57BL/6 mouse model assessed as HIF-1alpha protein expression at 100 mg/kg, im administered for 21 days followed by surgery by Western blot analysis; type: functional, organism-based; details: time 21.0 day

- fraction unbound [1]: 0.873
- efflux ratio [2]: 1.09
- solubility [4]: 472 mg/mL (≈ 1570 mM)
- pKa [5]: 10.1
- logP [6]: -2.42
- Papp A→B [7]: 2.71 ×10⁻⁶ cm/s
- Papp B→A [8]: 2.95 ×10⁻⁶ cm/s
- remaining at 12 h [24]: 99.4%
- remaining at 0.5 h [25]: 43.3%
- remaining at 0.5 h [26]: 35.8%
SMILES: OC[C@H]1O[C@@H](OCCc2ccc(O)cc2)[C@H](O)[C@@H](O)[C@@H]1O [SALIDROSIDE]
- Activity [3]: Active
- Activity [9]: Active
- Activity [10]: Active
- Activity [11]: Active
- Activity [12]: Active
- Activity [13]: Active
- Activity [14]: Active
- Activity [15]: Active
- Activity [16]: Active
- Activity [17]: Active
- Activity [18]: inactive
- Activity [19]: inactive
- Activity [20]: inactive
- Activity [21]: inactive
- Activity [22]: Active
- Activity [23]: Active
- Activity [27]: Active
- Activity [28]: Active
- Activity [29]: Active
- Activity [30]: Active
- Activity [31]: Active
- Activity [32]: Active
